Several values for one entry are separate records, joined by “and”; a condition that tells them apart may be missing. Equal values may be shown once. Entries after “also recorded” stand apart in the source; their conditions may differ. Where a name gives a salt, the structure may show the parent alone. Read-outs that look alike come from different tables or passages of the source.
Assays:
[1] = tested on: cerebellar Purkinje neurons; details: local administration, denervation or antipsychotics; cited from earlier work
PCP receptors [2] = experiment: Scatchard analysis of [3H]TCP binding after treatment with affinity ligand; design: species or system rat
Phencyclidine Receptor [3] = format: binding, rat; details: for IC50: read-out: Apparent IC50
[4] = cited from earlier work
PCP receptors [5] = experiment: [3H]PCP binding (Scatchard) in brain homogenates of rats pretreated i.c.v. with Metaphit or saline; design: species or system rat (male Sprague-Dawley); details: saline-pretreated rats; mean ±S.E.
[6] = tested on: phencyclidine receptors ([3H]PCP binding site); design: species or system rat
Phencyclidine Receptor [7] = format: binding, rat
[8] = tested on: benzodiazepine receptors ([3H]diazepam site); format: binding, rat
muscarinic receptors = format: binding, rat
[9] = Water solubility of Metaphit salts; details: relative to the hydrochloride
opioid receptors = molecular target: T1, opioid receptors (Rattus norvegicus, UniProt P33535); details: cited from earlier work
T1 construct: from tissue; host or cells: brain tissue (rat, inferred from the sister test)
T1 sequence (P33535 whole entry): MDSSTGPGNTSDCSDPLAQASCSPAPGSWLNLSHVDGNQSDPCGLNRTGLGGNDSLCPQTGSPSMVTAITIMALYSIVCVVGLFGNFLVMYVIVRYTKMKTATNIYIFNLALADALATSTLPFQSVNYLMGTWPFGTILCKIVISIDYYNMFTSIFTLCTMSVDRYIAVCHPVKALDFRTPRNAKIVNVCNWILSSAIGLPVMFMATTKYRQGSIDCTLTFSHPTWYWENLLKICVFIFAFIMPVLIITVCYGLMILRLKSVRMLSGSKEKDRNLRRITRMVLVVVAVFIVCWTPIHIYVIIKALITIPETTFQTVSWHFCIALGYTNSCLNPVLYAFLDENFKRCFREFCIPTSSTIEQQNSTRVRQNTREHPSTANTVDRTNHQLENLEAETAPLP

Molecule: NCCc1cc(O)c(O)cc1O [6-OHDA]
- effect on PCP/PCMP-induced depressions of cerebellar Purkinje neurons [1]: completely eliminates stereospecific Purkinje cell responses to PCMP

Molecule: c1csc(C2(N3CCCCC3)CCCCC2)c1 [[3H]-TCP]
- Kd (PCP receptors [2]; control tissue, [3H]-TCP 1.0 to 150 nM, read-out: Kd for control ([3H]-TCP)): 15 nM
- Non-specific binding of radioligand (Phencyclidine Receptor [3]): 10%

Molecule: CCNC1(c2cccc(N=C=S)c2)CCCCC1 [Ethylphit]
- IC50 (Phencyclidine Receptor [3]): 3840 nM

Molecule: CNC1(c2ccccc2Cl)CCCCC1=O (stereo not drawn) [Ketamine]
- psychotomimetic effects relative to PCP ([4]; in vivo): psychotomimetic effects that do not occur as frequently as with PCP

Molecule: c1ccc(C2(N3CCCCC3)CCCCC2)cc1 [[3H]-PCP]
- Kd (PCP receptors [5]): 237 ± 8 nM
- Non-specific binding of radioligand ([6]; [3H]-PCP): 30 % of the total binding

Molecule: c1csc(C2(N3CCCCC3)CCCCC2)c1 [TCP]
- potency relative to PCI [6]: twice as potent as PCI
- affinity for the PCP receptor relative to PCP (Phencyclidine Receptor [3]): considerably higher affinity for the PCP receptor than PCP
- IC50 (Phencyclidine Receptor [3]): 20 nM
- washout from homogenate (Phencyclidine Receptor [7]): completely washed out of the homogenate

Molecule: S=C=Nc1cccc(C2(N3CCCCC3)CCCCC2)c1 [Metaphit, 1-[1-(3-isothiocyanatophenyl)cyclohexyl]piperidine]
- Maximum % Alkylation by 10 uM Metaphit [8]: 0%
- Maximum % Alkylation by 10 uM Metaphit (muscarinic receptors): 0%
- irreversible loss of QNB binding (muscarinic receptors): without a significant loss of QNB binding

Molecule: lithium
- effect on PCP/PCMP-induced depressions of cerebellar Purkinje neurons [1]: strongly antagonized PCP-induced depressions

Molecule: S=C=Nc1cccc(C2(N3CCCCC3)CCCCC2)c1 [methanesulfonate salt]
- solubility in water [9]: considerably more soluble in water than the hydrochloride

Molecule: CCNC1(c2ccccc2)CCCCC1 [PCE, (1-Phenylcyclohexyl)ethylamine]
- IC50 ([6]; read-out: apparent IC50): 240 nM

Molecule: CC(C)NC1(c2cccc(N=C=S)c2)CCCCC1 [Isopropylphit]
- IC50 (Phencyclidine Receptor [3]): 2700 nM

Molecule: S=C=Nc1csc(C2(N3CCCCC3)CCCCC2)c1 [Thiophit]
- Bmax ([3H]-TCP) in treated tissue (PCP receptors [2]; 10 μM affinity ligand): 700 fmol/mg protein
- reduction in Bmax (PCP receptors [2]; 10 μM affinity ligand): ~30%
- Kd (PCP receptors [2]; 10 μM affinity ligand, value is for [3H]-TCP (1.0 to 150 nM), read-out: Kd ([3H]-TCP) in treated tissue): 27 nM
- affinity for the PCP receptor relative to other ligands (Phencyclidine Receptor [3]): much higher affinity for the PCP receptors; also recorded: considerably higher affinity for the PCP receptor than either of the other two affinity ligands
- potency relative to metaphit (Phencyclidine Receptor [3]): three times as potent as metaphit
- IC50 (Phencyclidine Receptor [3]): 900 nM

Molecule: c1ccc(C2(N3CCCCC3)CCCCC2)cc1 [PCP, 1-(1-phenylcyclohexyl)piperidine]
- IC50 (opioid receptors): 13000 nM
- IC50 [8]: > 200000 nM
- IC50 ([6]; read-out: IC50): 75 nM and 70 nM
- IC50 ([6]; read-out: apparent IC50): 150 nM
- duration of psychological side effects ([4]; use as anesthetic): more than 12 hours
- IC50 (Phencyclidine Receptor [3]): 70 nM
- washout from homogenate (Phencyclidine Receptor [7]; 10 uM PCP alone): completely washed out of the homogenate
- IC50 (muscarinic receptors): 25000 nM

Molecule: CC(C)NC1(c2ccccc2)CCCCC1 [PCI]
- IC50 ([6]; read-out: apparent IC50): 50 nM

Source: patent US4762846A (priority 1986, dated 1988)
